Converted amounts (≈) assume the structure as drawn. Read-outs that look alike come from different tables or passages of the source.
Columns and labels:
Hep3B2.1-7 cells = assay: MTT assay, in vitro growth of liver cancer Hep3B2.1-7 cells; assay type: cell-based; settings: 72 hours; for IC50: read-out: Inhibition on liver cancer cells, IC50
Description: The liver cancer Hep3B2.1-7 cells were obtained from ATCC. Cells were incubated in 1640 culture medium with 5% fetal calf serum and 100 U/ml double-antibody in a cell incubator at 37° C., 5% CO2 atmosphere and passaged via conventional methods. The sample was dissolved in DMSO, formulated into 50 mg/ml stocking solution, and stored at 4° C. The test solutions at 50, 25, 12.5 and 6.25 μg/ml were formulated with culture medium immediately before use.
The adherent cells were digested with cell digestive solution, and then the exfoliated cells were collected and counted. The cell suspension was formulated with 1640 culture medium containing 5% fetal calf serum (5.0×10^4/ml). The cell suspension was seeded on 96-well plate with 100 μl/well, and maintained in a cell incubator at 37° C., 5% CO2 atmosphere for 24 hours. After that, the compounds at various concentrations were added, where solvent was taken as negative control and Taxol as positive control. 10 μl MTT (5 mg/ml) was added after 72 hours. The supernatant was removed after cultivation for 3 hours more, 150 μl DMSO was added and the formazan was dissolved on shaking. OD values were measured at 570 nm after homogeneous mixing, and inhibition rate and IC50 values were calculated based on the mean of OD values from 3 wells.

MCF7 cells = assay: CellTiter-Glo Luminescent Cell Viability Assay on ER-positive breast cancer MCF-7 cells; assay type: cell-based, human; settings: average ± standard deviation when tested more than 3 times, read-out: Inhibition of the viability of breast cancer cells, IC50
Description: B: In Vitro CellTiter-Glo® Luminescent Cell Viability Assay on ER-Positive Breast Cancer MCF-7 Cells:
MCF7 cells are breast cancer cell lines that highly express ER-66, ER-46 and ER-36. (Relevance of breast cancer cell lines as models for breast tumours: an update. Marc Lacroix, Guy Leclercq, Breast Cancer Research and Treatment (2004) 83, 249-289; Wang et al., Proc. Natl. Acad. Sci. U.S.A. 103:9063-9068 (2006)). MCF7 cells were obtained from ATCC and maintained in Dulbecco's Modified Eagles Medium (DMEM) and 10% fetal calf serum at 37° C., under 5% CO2 atmosphere. The cells were seeded on 96-well plate at a density of 6×10^3 cells per well. MCF7 cells were treated with a test compound dissolved in DMSO at the concentrations of zero, 0.3 μM, 0.5 μM, 1 μM, 2 μM, 3 μM, 5 μM, 10 μM, 20 μM, 30 μM, 50 μM and 100 μM for 72 hours. Treated cells were examined by CellTiter-Glo® Luminescent Cell Viability Assay Kit (Promega), and luminescence values were recorded with Envision.

MDA-MB-231 cells = assay: CellTiter-Glo Luminescent Cell Viability Assay on ER-negative breast cancer MDA-MB-231 cells; assay type: cell-based; settings: average ± standard deviation when tested more than 3 times, read-out: Inhibition of the viability of breast cancer cells, IC50
Description: A: In Vitro CellTiter-Glo® Luminescent Cell Viability Assay on ER-Negative Breast Cancer MDA-MB-231 Cells:
MDA-MB-231 cells were maintained at 37° C., under 5% CO2 atmosphere in DMEM containing 10% fetal calf serum. The cells were seeded on 96-well plate at a density of 6×10^3 cells per well. MDA-MB-231 cells were treated with a test compound dissolved in DMSO at the concentrations of zero, 0.3 μM, 0.5 μM, 1 μM, 2 μM, 3 μM, 5 μM, 10 μM, 20 μM, 30 μM, 50 μM and 100 μM for 72 hours. Treated cells were examined by CellTiter-Glo® Luminescent Cell Viability Assay Kit (Promega), and luminescence values were recorded with Envision.

Inhibition on liver cancer cells, IC50 (Hep3B2.1-7 cells) [µg/mL]	IC50 (MCF7 cells; 72 hours) [µM]	IC50 (MDA-MB-231 cells; 72 hours) [µM]	IC50 (Hep3B2.1-7 cells) [µg/mL]	IC50 (MCF7 cells; Homo sapiens, MCF7, 72 h) [µM]	IC50 (MDA-MB-231 cells; Homo sapiens, MDA-MB-231, 72 h) [µM]	Molecule
0.04	3.52	3.28	–	–	–	2-(4-fluoromethoxyphenyl)-5,7-dihydroxy-3-methoxy-6,8-di(3-methyl-2-buten-1-yl)-4H-benzopyran-4-one [Compound 61]
9.43	> 100	8.89	–	–	–	COc1c(-c2ccc(Cl)cc2)oc2c(CC=C(C)C)c(O)c(CC=C(C)C)c(O)c2c1=O [Compound 10, 2-(4-chlorophenyl)-5,7-dihydroxy-3-methoxy-6,8-di(3-methyl-2-butylene-1-yl)-4H-benzopyran-4-one]
–	–	–	21 (≈ 47.2 µM)	4.84	2.85	COc1c(-c2ccc(C#N)cc2)oc2c(CC=C(C)C)c(O)c(CC=C(C)C)c(O)c2c1=O [Compound 57, 4-[5,7-dihydroxy-3-methoxy-6,8-di(3-methyl-2-butenyl)-4-oxo-4H-benzopyran-2-yl]benzonitrile]
–	–	–	9.95 (≈ 21.5 µM)	3.02	6.36	COc1c(-c2ccc(C(N)=O)cc2)oc2c(CC=C(C)C)c(O)c(CC=C(C)C)c(O)c2c1=O [Compound 60, 4-[5,7-dihydroxy-3-methoxy-6,8-di(3-methyl-2-buten-1-yl)-4-oxo-4H-benzopyran-2-yl]benzamide]
–	–	–	14 (≈ 28 µM)	6.06	4.87	COc1c(-c2ccc(S(N)(=O)=O)cc2)oc2c(CC=C(C)C)c(O)c(CC=C(C)C)c(O)c2c1=O [Compound 63, 4-[5,7-dihydroxy-3-methoxy-6,8-di(3-methyl-2-buten-1-yl)-4-oxo-4H-benzopyran-2-yl]benzene sulfonamide]
0.24	3.91	2.86	–	–	–	COc1c(-c2ccc(C(C)(C)O)cc2)oc2c(CC=C(C)C)c(O)c(CC=C(C)C)c(O)c2c1=O [Compound 66]
–	–	–	3.89 (≈ 7.37 µM)	> 100	1.87	COc1c(-c2ccc(S(=O)(=O)N(C)C)cc2)oc2c(CC=C(C)C)c(O)c(CC=C(C)C)c(O)c2c1=O [Compound 69, 4-[5,7-dihydroxy-3-methoxy-6,8-di(3-methyl-2-buten-1-yl)-4-oxo-4H-benzopyran-2-yl]-N,N-dimethylbenzene sulfonamide]
–	–	–	0.39 (≈ 0.759 µM)	> 100	7.64	CNS(=O)(=O)c1ccc(-c2oc3c(CC=C(C)C)c(O)c(CC=C(C)C)c(O)c3c(=O)c2OC)cc1 [Compound 70, 4-[5,7-dihydroxy-3-methoxy-6,8-di(3-methyl-2-buten-1-yl)-4-oxo-4H-benzopyran-2-yl]N-methylbenzene sulfonamide]
–	–	–	0.83 (≈ 1.84 µM)	49	11.6	COc1c(-c2ccc(O)c(C)c2)oc2c(CC=C(C)C)c(O)c(CC=C(C)C)c(O)c2c1=O [Compound 75, 2-(3-methyl-4-hydroxyphenyl)-5,7-dihydroxy-3-methoxy-6,8-di(3-methyl-2-buten-1-yl)-4H-benzopyran-4-one]
–	–	–	5.79 (≈ 12.3 µM)	4.08	3	COc1c(-c2ccc(O)c(Cl)c2)oc2c(CC=C(C)C)c(O)c(CC=C(C)C)c(O)c2c1=O [Compound 76, 2-(3-chloro-4-hydroxyphenyl)-5,7-dihydroxy-3-methoxy-6,8-di(3-methyl-2-buten-1-yl)-4H-benzopyran-4-one]
–	–	–	3.08 (≈ 6.11 µM)	> 100	15.4	COc1c(-c2ccc(O)c(C(F)(F)F)c2)oc2c(CC=C(C)C)c(O)c(CC=C(C)C)c(O)c2c1=O [Compound 77, 2-(3-trifluoromethyl-4-hydroxyphenyl)-5,7-dihydroxy-3-methoxy-6,8-di(3-methyl-2-buten-1-yl)-4H-benzopyran-4-one]
–	–	–	8.95 (≈ 19.7 µM)	5.46	5.36	COc1c(-c2ccc(F)c(O)c2)oc2c(CC=C(C)C)c(O)c(CC=C(C)C)c(O)c2c1=O [Compound 78, 2-(3-hydroxy-4-fluorophenyl)-5,7-dihydroxy-3-methoxy-6,8-di(3-methyl-2-buten-1-yl)-4H-benzopyran-4-one]
–	–	–	–	> 100	> 100	CC(C)=CCc1c(O)c(CC=C(C)C)c2oc(-c3ccc(Cl)c(F)c3)cc(=O)c2c1O [Compound 86, 2-(3-fluoro-4-chlorophenyl)-5,7-dihydroxy-6,8-di(3-methyl-2-buten-1-yl)-4H-benzopyran-4-one]
–	–	–	–	> 100	16.3	CC(C)=CCc1c(O)c(CC=C(C)C)c2oc(-c3ccc(C)cc3)cc(=O)c2c1O [Compound 87, 2-(4-methylphenyl)-5,7-dihydroxy-6,8-di(3-methyl-2-buten-1-yl)-4H-benzopyran-4-one]
–	–	–	–	> 100	16.1	CC(C)=CCc1c(O)c(CC=C(C)C)c2oc(-c3ccc(Cl)c(Cl)c3)cc(=O)c2c1O [Compound 88, 2-(3,4-dichlorophenyl)-5,7-dihydroxy-6,8-di(3-methyl-2-buten-1-yl)-4H-benzopyran-4-one]
–	–	–	–	> 100	> 100	CC(C)=CCc1c(O)c(CC=C(C)C)c2oc(-c3ccc(F)cc3)cc(=O)c2c1O [Compound 89, 2-(4-fluorophenyl)-5,7-dihydroxy-6,8-di(3-methyl-2-buten-1-yl)-4H-benzopyran-4-one]
–	–	–	–	> 100	8.89	CC(C)=CCc1c(O)c(CC=C(C)C)c2oc(-c3ccc(Cl)cc3)cc(=O)c2c1O [Compound 91, 2-(4-chlorophenyl)-5,7-dihydroxy-6,8-di(3-methyl-2-buten-1-yl)-4H-benzopyran-4-one]
–	–	–	–	> 100	21.5	CC(C)=CCc1c(O)c(CC=C(C)C)c2oc(-c3cccnc3)cc(=O)c2c1O [Compound 92, 2-(pyridin-3-yl)-5,7-dihydroxy-6,8-di(3-methyl-2-buten-1-yl)-4H-benzopyran-4-one]
–	–	–	–	15.6	27.5	CC(C)=CCc1c(O)c(CC=C(C)C)c2oc(-c3ccc(F)c(F)c3)c(C)c(=O)c2c1O [Compound 93, 2-(3,4-difluorophenyl)-3-methyl-5,7-dihydroxy-6,8-di(3-methyl-2-buten-1-yl)-4H-benzopyran-4-one]
–	–	–	–	15.6	31.3	CC(C)=CCc1c(O)c(CC=C(C)C)c2oc(-c3ccc(Cl)c(F)c3)c(C)c(=O)c2c1O [Compound 94, 2-(3-fluoro-4-chlorophenyl)-3-methyl-5,7-dihydroxy-6,8-di(3-methyl-2-buten-1-yl)-4H-benzopyran-4-one]
–	–	–	–	6.62 ± 1.93	10.4 ± 1.93	CC(C)=CCc1c(O)c(CC=C(C)C)c2oc(-c3ccc(F)c(F)c3)c(O)c(=O)c2c1O [Compound 95, 2-(3,4-difluorophenyl)-3,5,7-trihydroxy-6,8-di(3-methyl-2-buten-1-yl)-4H-benzopyran-4-one]
–	–	–	–	> 100	10.4	CC(C)=CCc1c(O)c(CC=C(C)C)c2oc(-c3ccc(Cl)c(F)c3)c(O)c(=O)c2c1O [Compound 96, 2-(3-fluoro-4-chlorophenyl)-3,5,7-trihydroxy-6,8-di(3-methyl-2-buten-1-yl)-4H-benzopyran-4-one]
–	–	–	42.8 (≈ 50.1 µM)	–	–	CC(=O)O[C@H]1C(=O)[C@@]2(C)[C@H]([C@H](OC(=O)c3ccccc3)[C@]3(O)C[C@H](OC(=O)[C@H](O)[C@@H](NC(=O)c4ccccc4)c4ccccc4)C(C)=C1C3(C)C)[C@]1(OC(C)=O)CO[C@@H]1C[C@@H]2O [Taxol, reference compound]

— patent US9090583B2, “Benzopyrone estrogen receptor regulator” (BEIJING SHENOGEN PHARMA GROUP LTD., priority 2010, dated 2015)
